In ChEMBL document CHEMBL1681643 (Bioorg Med Chem Lett, 2011):
In brackets after ≈: the same amount, converted by molar mass. Activity calls are given as the source filed them. The rule behind the calls is not given here. Non-standard residues stand in square brackets, D forms with d. Residues, ends and D or L forms follow the SMILES beside them. *: point of attachment. S(CH2)2OCO2(CPT-20-yl) = CC[C@@]1(OC(=O)OCCS*)C(=O)OCc2c1cc1n(c2=O)Cc2cc3ccccc3nc2-1; Ahx = NCCCCCC(=O)O

What was measured:
U-87MG ATCC = experiment: Anticancer activity against NK1R overexpressing human U87MG cells assessed as cell viability after 72 hrs by MTT assay; type: functional, cell-based
MDA-MB-231 = experiment: Anticancer activity against NK1R overexpressing human MDA-MB-231 cells assessed as cell viability after 72 hrs by MTT assay; type: functional, cell-based
MCF7 = experiment: Anticancer activity against NK1R overexpressing human MCF7 cells assessed as cell viability after 72 hrs by MTT assay; type: functional, cell-based
CHO [1] = experiment: Cytotoxicity against CHO cells assessed as cell proliferation after 72 hrs by MTT assay; type: cell-based, Cricetulus griseus; settings: chinese hamster
CHO [2] = experiment: Drug uptake in CHO cells at 10 uM after 30 mins by confocal microscopy; type: ADME, cell-based, Cricetulus griseus; settings: chinese hamster, 0.5 h
[3] = Solubility of the compound in phosphate buffer at pH 7.4; type: physicochemical
U-251 = experiment: Anticancer activity against NK1R overexpressing human U251MG cells assessed as cell viability after 72 hrs by MTT assay; type: functional, cell-based
CHO [4] = experiment: Cytotoxicity against NK1R overexpressing CHO cells assessed as cell viability after 72 hrs by MTT assay; type: functional, cell-based; settings: Cricetulus griseus
CHO [5] = experiment: Drug uptake in NK1R overexpressing CHO cells at 10 uM after 30 mins by confocal microscopy; type: ADME, cell-based, Cricetulus griseus; settings: chinese hamster, 0.5 h
CHO [6] = experiment: Cytotoxicity against CHO cells assessed as cell viability after 72 hrs by MTT assay; type: cell-based, Cricetulus griseus; settings: chinese hamster

In the case of `CC[C@@]1(OC(=O)OCCSSC[C@H](N)C(=O)N[C@@H](CCCNC(=N)N)C(=O)N2CCC[C@H]2C(=O)N[C@@H](CCCCN)C(=O)N2CCC[C@H]2C(=O)N[C@@H](CCC(N)=O)C(=O)N[C@@H](CCC(N)=O)C(=O)N[C@@H](Cc2ccccc2)C(=O)N[C@@H](Cc2ccccc2)C(=O)NCC(=O)N[C@@H](CC(C)C)C(=O)N[C@@H](CCSC)C(N)=O)C(=O)OCc2c1cc1n(c2=O)Cc2cc3ccccc3nc2-1`, the Activity (U-87MG ATCC) was “Dose-dependent effect”, the Activity (MDA-MB-231) was “Dose-dependent effect” and the Activity (MCF7) was “Dose-dependent effect”. The Activity (CHO [1]) was “Not Active”, the Drug uptake (CHO [2]) was “Active” and the solubility [3] was 103 µg/mL (≈ 54.2 µM). The Activity (U-251) was “Dose-dependent effect”, the Activity (CHO [4]) was “Active” and the Drug uptake (CHO [5]) was “Active”.
For `CC[C@@]1(OC(=O)OCCSSC[C@H](N)C(=O)NCCCCCC(=O)N[C@@H](CCC(N)=O)C(=O)N[C@@H](Cc2ccccc2)C(=O)N[C@@H](Cc2ccccc2)C(=O)NCC(=O)N[C@@H](CC(C)C)C(=O)N[C@@H](CCSC)C(N)=O)C(=O)OCc2c1cc1n(c2=O)Cc2cc3ccccc3nc2-1` (H-C(S(CH2)2OCO2(CPT-20-yl))[Ahx]QFFGLM-NH2), the Activity (U-87MG ATCC) was “Dose-dependent effect”, the Activity (MDA-MB-231) was “Dose-dependent effect” and the Activity (MCF7) was “Dose-dependent effect”. For the same compound, the Activity (CHO [1]) was “Not Active”, the Drug uptake (CHO [2]) was “Active” and the solubility [3] was 8.4 µg/mL (≈ 5.97 µM). For the same compound, the Activity (U-251) was “Dose-dependent effect”, the Activity (CHO [4]) was “Active” and the Drug uptake (CHO [5]) was “Active”.
In the case of `CSCC[C@H](NC(=O)[C@H](CC(C)C)NC(=O)CNC(=O)[C@H](Cc1ccccc1)NC(=O)[C@H](Cc1ccccc1)NC(=O)[C@H](CCC(N)=O)NC(=O)CCCCCNC(=O)[C@@H](N)CS)C(N)=O` (H-C[Ahx]QFFGLM-NH2), the Activity (U-87MG ATCC) was “inactive”, the Activity (MDA-MB-231) was “inactive” and the Activity (MCF7) was “inactive”. For the same compound, the Activity (U-251) was “inactive”.
With `CC[C@@]1(O)C(=O)OCc2c1cc1n(c2=O)Cc2cc3ccccc3nc2-1` [CAMPTOTHECIN] the Activity (U-87MG ATCC) was “Dose-dependent effect”, the Activity (MDA-MB-231) was “Dose-dependent effect” and the Activity (MCF7) was “Dose-dependent effect”. The Activity (CHO [6]) was “Toxic”, the Drug uptake (CHO [2]) was “Active” and the solubility [3] was 2.7 µg/mL (≈ 7.75 µM). For the same compound, the Activity (U-251) was “Dose-dependent effect” and the Drug uptake (CHO [5]) was “Active”.
